From patent publication US4727064A, “Pharmaceutical preparations containing cyclodextrin derivatives” (priority 1985, dated 1988)
Values after ≈ are worked out from the molar mass of the structure shown. Where a name gives a salt, the structure may show the parent alone. Read-outs that look alike come from different tables or passages of the source.

What was measured:
[1] = Solubility of drugs in aqueous cyclodextrin solubilizer solution (saturation by stirring with excess drug, room temperature, about 24 hours; spectrophotometric); conditions: for solubility: water
Procedure: The solutions of solubilizer in water were saturated by stirring with excess of drug at room temperature for about 24 hours. The resulting suspensions were clarified either by filtration through a sintered glass filter or by centrifugation. Concentration of hormones in clarified solutions was measured spectrophotometrically. In these experiments drugs were solubilized with cyclodextrin derivatives with constant degrees of substitution and which are given in the footnote to Table 1.

[2] = Table 1, water, cited from earlier work
[3] = hydroxypropyl-β-cyclodextrin in water, Solubility in solubilizer solution, Table 1, hydroxypropyl-β-cyclodextrin in water, degree of substitution 6-7
[4] = hydroxypropyl-β-cyclodextrin in water, Solubility in solubilizer solution
[5] = data from K. Uekama, Pharmacology International, 61-65 (1985)
[6] = 50% aqueous carboxamido-β-cyclodextrin, Solubilities of steroids in 50% aqueous solutions of substituted cyclodextrins, Table 3, carboxamido-β-cyclodextrin
[7] = 50% aqueous carboxymethyl-β-cyclodextrin, Solubilities of steroids in 50% aqueous solutions of substituted cyclodextrins, Table 3, carboxymethyl-β-cyclodextrin
[8] = 50% aqueous diethylaminoethyl-β-cyclodextrin, Solubilities of steroids in 50% aqueous solutions of substituted cyclodextrins, Table 3, diethylaminoethyl-β-cyclodextrin
[9] = 50% aqueous hydroxypropyl-beta-cyclodextrin, Solubilities of steroids in 50% aqueous solutions of hydroxypropyl-β-cyclodextrin, Table 2, d.s. 4.7
[10] = 50% aqueous hydroxypropyl-beta-cyclodextrin, Solubilities of steroids in 50% aqueous solutions of hydroxypropyl-β-cyclodextrin, Table 2, d.s. 5.7
[11] = 50% aqueous hydroxypropyl-beta-cyclodextrin, Solubilities of steroids in 50% aqueous solutions of hydroxypropyl-β-cyclodextrin, Table 2, d.s. 7.0
[12] = 50% aqueous hydroxypropyl-beta-cyclodextrin, Solubilities of steroids in 50% aqueous solutions of hydroxypropyl-β-cyclodextrin, Table 2, d.s. 14
[13] = data from J. Brotherton, Sex Hormone Pharmacology (1976), p. 36
[14] = hydroxypropyl-β-cyclodextrin in water, 24 h

SMILES: C[C@]12CCC(=O)C=C1CC[C@@H]1[C@@H]2CC[C@@]2(C)[C@H]1CC[C@]2(C)O [17-methyltestosterone]
- solubility at 24 h [1, 3]: 39 mg/mL (≈ 129 mM)
- solubility [1]: < 0.17 mg/mL

SMILES: CC(=O)Nc1ccc(O)cc1 [acetamidophen]
- solubility at 24 h [1, 3]: 67 mg/mL (≈ 443 mM)
- solubility [1]: 11 mg/mL (≈ 72.8 mM)

SMILES: Nc1nc2c(ncn2COCCO)c(=O)[nH]1 [acyclovir]
- Solubility in water [1]: insoluble
- solubility at 24 h [1, 4]: 2.5 mg/mL (≈ 11.1 mM)

SMILES: CN1CCc2cccc3c2[C@H]1Cc1ccc(O)c(O)c1-3 [apomorphine]
- solubility at 24 h [1, 4]: 116 mg/mL (≈ 434 mM)
- solubility [1]: 20 mg/mL (≈ 74.8 mM)

SMILES: Cc1cc(C(C)(C)C)c(O)c(C(C)(C)C)c1 [butylated hydroxytoluene]
- Solubility in water ([1]; Table 1, water): insoluble
- solubility at 24 h ([1]; hydroxypropyl-α-cyclodextrin in water, Solubility in solubilizer solution, Table 1, hydroxypropyl-α-cyclodextrin in water, degree of substitution 6-7): 0.3 mg/mL (≈ 1.36 mM)
- solubility at 24 h [1, 3]: 3 mg/mL (≈ 13.6 mM)
- solubility at 24 h ([1]; hydroxypropyl-γ-cyclodextrin in water, Solubility in solubilizer solution, Table 1, hydroxypropyl-γ-cyclodextrin in water, degree of substitution 6-7): 0.2 mg/mL (≈ 0.908 mM)

SMILES: NS(=O)(=O)c1cc(C2(O)NC(=O)c3ccccc32)ccc1Cl (stereo not shown) [chlorthalidone]
- solubility at 24 h [1, 4]: 10.5 mg/mL (≈ 31 mM)
- solubility [1]: 0.12 mg/mL (≈ 0.354 mM)

SMILES: C=C1CC[C@H](O)C/C1=C/C=C1\CCC[C@]2(C)[C@@H]([C@H](C)CCCC(C)C)CC[C@@H]12 [cholecalciferol]
- solubility at 24 h [1, 3]: 10 mg/mL (≈ 26 mM)
- solubility [1]: < 0.23 mg/mL

SMILES: Cl.Clc1cccc(Cl)c1NC1=NCCN1 [cloridine hydrochloride]
- Solubility in solubilizer solution ([1]; Table 1, hydroxypropyl-β-cyclodextrin in water, degree of substitution 6-7, 1440 min): 83.0 mg/mL

SMILES: C[C@@H]1C[C@H]2[C@@H]3CCC4=CC(=O)C=C[C@]4(C)[C@@]3(F)[C@@H](O)C[C@]2(C)[C@@]1(O)C(=O)CO [dexamethasone]
- solubility at 24 h [1, 3]: 24 mg/mL (≈ 61.2 mM)
- solubility [1]: 0.1 mg/mL (≈ 0.255 mM)

SMILES: C[C@H]1O[C@@H](O[C@H]2[C@@H](O)C[C@H](O[C@H]3[C@@H](O)C[C@H](O[C@H]4CC[C@@]5(C)[C@H](CC[C@@H]6[C@@H]5C[C@@H](O)[C@]5(C)[C@@H](C7=CC(=O)OC7)CC[C@]65O)C4)O[C@@H]3C)O[C@@H]2C)C[C@H](O)[C@@H]1O [digoxin]
- solubility at 24 h [1, 3]: 45 mg/mL (≈ 57.6 mM)
- Solubility in water [2, 5]: 0.07 mg/mL (≈ 0.0896 mM)

SMILES: O=C1NC(=O)C(c2ccccc2)(c2ccccc2)N1 [diphenylhydantoin]
- solubility at 24 h [1, 3]: 1.7 mg/mL (≈ 6.74 mM)
- Solubility in water [2, 5]: 0.03 mg/mL (≈ 0.119 mM)

SMILES: C[C@]12CC[C@@H]3c4ccc(O)cc4CC[C@H]3[C@@H]1C[C@@H](O)[C@@H]2O [estriol]
- solubility at 24 h [1, 3]: 41 mg/mL (≈ 142 mM)
- solubility [1]: < 1.3 mg/mL

SMILES: C#C[C@]1(O)CC[C@H]2[C@@H]3CCc4cc(OC)ccc4[C@H]3CC[C@@]21C [ethinylestradiol-3-methyl ether]
- solubility at 24 h [1, 4]: 27 mg/mL (≈ 87 mM)
- solubility [1]: < 1.5 mg/mL

SMILES: C#C[C@]1(O)CC[C@H]2[C@@H]3CCC4=CC(=O)CC[C@]4(C)[C@H]3CC[C@@]21C [ethisterone]
- solubility at 24 h [1, 3]: 0.5 mg/mL (≈ 1.6 mM)
- solubility [1]: < 0.2 mg/mL

SMILES: NS(=O)(=O)c1cc2c(cc1C(F)(F)F)NCNS2(=O)=O [hydroflumethiazide]
- solubility at 24 h [1, 4]: 9.3 mg/mL (≈ 28.1 mM)
- solubility [1]: 0.3 mg/mL (≈ 0.906 mM)

SMILES: COc1ccc2c(c1)c(CC(=O)O)c(C)n2C(=O)c1ccc(Cl)cc1 [indomethacin]
- solubility at 24 h [1, 3]: 4.2 mg/mL (≈ 11.7 mM)
- Solubility in water [2, 5]: 0.02 mg/mL (≈ 0.0559 mM)

SMILES: CC(C)NNC(=O)c1ccncc1 [iproniazid phosphate]
- solubility at 24 h [1, 4]: 95 mg/mL
- solubility [1]: 30 mg/mL

SMILES: O=[N+]([O-])OCC(CO[N+](=O)[O-])O[N+](=O)[O-] [nitroglycerin]
- solubility at 24 h [1, 3]: 10.4 mg/mL (≈ 45.8 mM)
- solubility [1]: 1.25 mg/mL (≈ 5.5 mM)

SMILES: CC1OC(OC2CC(O)C3(CO)C4C(O)CC5(C)C(C6=CC(=O)OC6)CCC5(O)C4CCC3(O)C2)C(O)C(O)C1O (stereo not shown) [oubain]
- solubility at 24 h [1, 3]: 80 mg/mL (≈ 137 mM)
- solubility [1]: 13 mg/mL (≈ 22.2 mM)

SMILES: CC(=O)[C@H]1CC[C@H]2[C@@H]3CCC4=CC(=O)CC[C@]4(C)[C@H]3CC[C@]12C [progesterone]
- solubility at 24 h [1, 6]: 38 mg/mL (≈ 121 mM)
- solubility at 24 h [1, 7]: 14 mg/mL (≈ 44.5 mM)
- solubility at 24 h [1, 8]: 18 mg/mL (≈ 57.2 mM)
- solubility at 24 h [1, 9]: 30 mg/mL (≈ 95.4 mM)
- solubility at 24 h [1, 10]: 44 mg/mL (≈ 140 mM)
- solubility at 24 h [1, 11]: 35 mg/mL (≈ 111 mM)
- solubility at 24 h [1, 12]: 23 mg/mL (≈ 73.1 mM)
- solubility at 24 h [1, 3]: 34 mg/mL (≈ 108 mM)
- Solubility in water [2, 13]: 0.015 mg/mL (≈ 0.0477 mM)

SMILES: CC1=C(/C=C/C(C)=C/C=C/C(C)=C/C=O)C(C)(C)CCC1 [retinal]
- solubility at 24 h [1, 4]: 2.6 mg/mL (≈ 9.14 mM)
- solubility [1]: < 0.07 mg/mL

SMILES: CC1=C(/C=C/C(C)=C/C=C/C(C)=C/C(=O)O)C(C)(C)CCC1 [retinoic acid, all trans]
- Solubility in solubilizer solution [1, 14]: 0.8 mg/mL (≈ 2.66 mM)
- solubility [1]: < 0.07 mg/mL

SMILES: CC1=C(/C=C/C(C)=C/C=C/C(C)=C/C(=O)O)C(C)(C)CCC1 [retinoic acid, choline salt of all trans]
- Solubility in solubilizer solution [1, 14]: 18.8 mg/mL

SMILES: CC1=C(/C=C/C(C)=C/C=C/C(C)=C/C(=O)O)C(C)(C)CCC1 [retinoic acid, ethanolamine salt of all trans]
- solubility at 24 h ([1]; 40% hydroxypropyl-β-cyclodextrin, 1% ethanolamine, Solubility in solubilizer solution): 28.4 mg/mL

SMILES: CC1=C(/C=C/C(C)=C/C=C/C(C)=C/C(=O)O)C(C)(C)CCC1 [retinoic acid, sodium salt of all trans]
- Solubility in solubilizer solution [1, 14]: 1.6 mg/mL

SMILES: CC1=C(/C=C/C(C)=C/C=C/C(C)=C/CO)C(C)(C)CCC1 [retinol]
- solubility at 24 h [1, 4]: 5.5 mg/mL (≈ 19.2 mM)
- solubility [1]: < 0.1 mg/mL

SMILES: CC(=O)S[C@@H]1CC2=CC(=O)CC[C@]2(C)[C@H]2CC[C@@]3(C)[C@@H](CC[C@@]34CCC(=O)O4)[C@H]12 [spironolactone]
- solubility at 24 h [1, 4]: 42 mg/mL (≈ 101 mM)
- Solubility in water [2, 5]: 0.03 mg/mL (≈ 0.072 mM)

SMILES: C[C@]12CC[C@H]3[C@@H](CCC4=CC(=O)CC[C@@]43C)[C@@H]1CC[C@@H]2O [testosterone]
- solubility at 24 h [1, 6]: 24 mg/mL (≈ 83.2 mM)
- solubility at 24 h [1, 7]: 24 mg/mL (≈ 83.2 mM)
- solubility at 24 h [1, 8]: 9 mg/mL (≈ 31.2 mM)
- solubility at 24 h [1, 9]: 56 mg/mL (≈ 194 mM)
- solubility at 24 h [1, 10]: 62 mg/mL (≈ 215 mM)
- solubility at 24 h [1, 11]: 40 mg/mL (≈ 139 mM)
- solubility at 24 h [1, 12]: 23 mg/mL (≈ 79.7 mM)
- solubility at 24 h [1, 3]: 38 mg/mL (≈ 132 mM)
- Solubility in water [2, 13]: 0.026 mg/mL (≈ 0.0901 mM)

SMILES: Cn1c(=O)c2[nH]cnc2n(C)c1=O [theophylline]
- solubility at 24 h [1, 3]: 11 mg/mL (≈ 61.1 mM)
- solubility [1]: 8.3 mg/mL (≈ 46.1 mM)
